pIC50: −log10 of the molar value.
target: T1, human TLR7 (Homo sapiens, UniProt Q9NYK1); assay: TLR7 inhibition reporter assay (HEK-Blue cells, SEAP reporter, gardiquimod stimulation); format: cell-based; conditions: HEK-Blue cells overexpressing human TLR7, SEAP reporter, gardiquimod 7.5 μM
T1 construct: host or cells: HEK-Blue cells
T1 sequence (Q9NYK1 27-1049): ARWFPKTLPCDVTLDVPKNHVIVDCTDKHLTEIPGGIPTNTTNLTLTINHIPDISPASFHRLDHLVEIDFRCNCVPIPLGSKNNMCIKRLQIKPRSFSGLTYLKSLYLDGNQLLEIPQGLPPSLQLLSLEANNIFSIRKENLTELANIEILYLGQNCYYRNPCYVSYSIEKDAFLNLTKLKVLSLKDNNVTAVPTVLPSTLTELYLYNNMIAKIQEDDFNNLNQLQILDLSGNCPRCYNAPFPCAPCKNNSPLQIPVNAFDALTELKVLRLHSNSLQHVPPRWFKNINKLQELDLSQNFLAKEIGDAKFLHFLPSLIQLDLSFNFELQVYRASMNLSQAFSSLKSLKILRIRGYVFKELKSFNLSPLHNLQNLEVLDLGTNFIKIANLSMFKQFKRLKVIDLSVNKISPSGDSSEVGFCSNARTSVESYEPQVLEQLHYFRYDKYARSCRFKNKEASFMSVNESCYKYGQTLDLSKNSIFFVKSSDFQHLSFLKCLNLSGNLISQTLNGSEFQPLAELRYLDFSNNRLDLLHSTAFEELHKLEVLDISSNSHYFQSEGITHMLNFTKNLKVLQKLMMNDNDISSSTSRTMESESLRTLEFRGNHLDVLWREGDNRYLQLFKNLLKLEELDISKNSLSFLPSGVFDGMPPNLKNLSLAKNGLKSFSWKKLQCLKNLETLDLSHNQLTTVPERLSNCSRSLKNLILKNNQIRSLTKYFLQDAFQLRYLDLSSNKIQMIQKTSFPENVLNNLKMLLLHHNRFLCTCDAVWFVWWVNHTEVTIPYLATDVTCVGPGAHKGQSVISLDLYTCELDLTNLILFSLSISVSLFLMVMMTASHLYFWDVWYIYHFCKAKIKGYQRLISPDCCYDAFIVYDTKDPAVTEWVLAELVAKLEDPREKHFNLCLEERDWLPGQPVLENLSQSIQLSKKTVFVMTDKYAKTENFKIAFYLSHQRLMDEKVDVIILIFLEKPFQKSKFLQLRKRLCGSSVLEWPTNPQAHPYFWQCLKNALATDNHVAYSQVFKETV
Method: (§1) TLR7/8/9 Inhibition Reporter Assays
(§2) HEK-Blue™-cells (Invivogen) overexpressing human TLR7, TLR8 or TLR9 receptors were used for screening inhibitors of these receptors using an inducible SEAP (secreted embryonic alkaline phosphatase) reporter gene under the control of the IFN-β minimal promoter fused to five NF-κB and AP-1-binding sites. Briefly, cells are seeded into Greiner 384 well plates (15000 cells per well for TLR7, 20,000 for TLR8 and 25,000 for TLR9) and then treated with test compounds in DMSO to yield a final dose response concentration range of 0.05 nM-50 μM. After a 30 minute compound pre-treatment at room temperature, the cells are then stimulated with a TLR7 ligand (gardiquimod at a final concentration of 7.5 μM), TLR8 ligand (R848 at a final concentration of 15.9 μM) or TLR9 ligand (ODN2006 at a final concentration of 5 nM) to activate NF-κB and AP-1 which induce the production of SLA After a 22 hour incubation at 37° C., […], SEAP levels are determined with the addition of HEK-Blue™ Detection reagent (Invivogen), a cell culture medium that allows for detection of SLAP, according to manufacturer's specifications. The percent inhibition is determined as the % reduction in the HEK-Blue signal present in wells treated with agonist plus DMSO alone compared to wells treated with a known inhibitor.

Structure (SMILES)	pIC50
Cc1cc(-c2[nH]nc(-c3nc4ccc(NC(C)C)cc4s3)c2C(C)C)cn2ncnc12 [Example 258]	7.44
Cc1cc(-c2[nH]nc(C(=O)N[C@H]3CC[C@@H](NCC4CCOC4)CC3)c2C(C)C)cn2ncnc12 (stereo partly drawn) [Example 87]	8.76
Cc1cc(-c2[nH]nc(-c3ncc(C4CCN(C(C)C)CC4)cn3)c2C(C)C)cn2ncnc12 [Example 370]	7.91
CC(=O)N1CCc2nc(-c3n[nH]c(-c4cc(C)c5ncnn5c4)c3C(C)C)sc2C1 [Example 276]	6.01
Cc1cc(-c2[nH]nc(C(=O)NC3CCN(CCCC(F)(F)F)CC3)c2C(C)C)cn2ncnc12 [Example 71]	8.16
Cc1cc(-c2[nH]nc(-c3nc4c(s3)CN(C(=O)CN(C)C)CC4)c2C(C)C)cn2ncnc12 [Example 270]	8.05
Cc1cc(-c2[nH]nc(C3CCC(N(C)C(=O)CN(C)C)CC3)c2C(C)C)cn2ncnc12 (single isomer, unassigned) [compound 297]	8.65
COc1cc(-c2[nH]nc(-c3cnc(C4CCN(C5COC5)CC4)cn3)c2C(C)C)cn2ncnc12 [Example 385]	7.23

More lines, in order of rising pIC50, values ahead:

pIC50	Structure (SMILES)
7.86	CNC(=O)CN1CCc2cc(-c3n[nH]c(-c4cc(C)c5ncnn5c4)c3C(C)C)ccc2C1 [Example 273]
7.93	Cc1cc(-c2[nH]nc(C(=O)N[C@H]3CC[C@H](NC(C)C(C)(C)C)CC3)c2C(C)C)cn2ncnc12 (stereo partly drawn) [Example 148]
8.86	Cc1cc(-c2[nH]nc(-c3ccc4cnccc4c3)c2C(C)C)cn2ncnc12 [Example 214]
8.96	Cc1cc(-c2[nH]nc(C(=O)N[C@H]3CCCNC3)c2C(C)C)cn2ncnc12 [Example 54]

target: T2, human TLR9 (Homo sapiens, UniProt Q9NR96); assay: TLR9 inhibition reporter assay (HEK-Blue cells, SEAP reporter, ODN2006 stimulation); format: cell-based; conditions: HEK-Blue cells overexpressing human TLR9, SEAP reporter, ODN2006 5 nM
T2 construct: host or cells: HEK-Blue cells
T2 sequence (Q9NR96 26-1032): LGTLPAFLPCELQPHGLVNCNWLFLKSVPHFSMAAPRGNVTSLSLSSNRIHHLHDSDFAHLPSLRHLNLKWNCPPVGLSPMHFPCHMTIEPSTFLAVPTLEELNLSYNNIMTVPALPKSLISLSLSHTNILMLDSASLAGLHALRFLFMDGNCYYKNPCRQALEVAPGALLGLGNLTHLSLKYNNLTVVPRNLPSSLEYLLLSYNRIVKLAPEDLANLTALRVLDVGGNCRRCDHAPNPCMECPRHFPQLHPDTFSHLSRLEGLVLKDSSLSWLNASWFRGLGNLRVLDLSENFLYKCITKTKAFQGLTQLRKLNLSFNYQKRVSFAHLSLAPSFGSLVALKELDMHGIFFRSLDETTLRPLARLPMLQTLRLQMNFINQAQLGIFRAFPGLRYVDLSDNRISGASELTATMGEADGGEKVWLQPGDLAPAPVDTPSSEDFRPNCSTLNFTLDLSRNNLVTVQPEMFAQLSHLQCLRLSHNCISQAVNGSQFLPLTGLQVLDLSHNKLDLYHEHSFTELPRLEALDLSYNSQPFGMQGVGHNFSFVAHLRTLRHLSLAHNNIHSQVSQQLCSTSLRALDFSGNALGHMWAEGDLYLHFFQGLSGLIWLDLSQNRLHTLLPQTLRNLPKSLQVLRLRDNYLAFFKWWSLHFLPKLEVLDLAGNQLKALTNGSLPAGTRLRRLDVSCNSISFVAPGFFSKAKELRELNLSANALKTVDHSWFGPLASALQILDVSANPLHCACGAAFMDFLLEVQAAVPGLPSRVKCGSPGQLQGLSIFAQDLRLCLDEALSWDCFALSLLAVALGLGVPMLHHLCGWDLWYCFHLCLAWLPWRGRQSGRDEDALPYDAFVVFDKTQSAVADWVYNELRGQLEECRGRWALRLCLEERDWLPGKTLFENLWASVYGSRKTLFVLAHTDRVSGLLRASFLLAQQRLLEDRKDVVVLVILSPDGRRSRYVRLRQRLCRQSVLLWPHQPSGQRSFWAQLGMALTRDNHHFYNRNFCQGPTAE
Method: as §1, §2

Structure (SMILES)	pIC50
Cc1cc(-c2[nH]nc(-c3nc4ccc(NC(C)C)cc4s3)c2C(C)C)cn2ncnc12 [Example 258]	4.53
Cc1cc(-c2[nH]nc(C(=O)N[C@H]3CC[C@@H](NCC4CCOC4)CC3)c2C(C)C)cn2ncnc12 (stereo partly drawn) [Example 87]	5.11
Cc1cc(-c2[nH]nc(-c3ncc(C4CCN(C(C)C)CC4)cn3)c2C(C)C)cn2ncnc12 [Example 370]	5.19
CC(=O)N1CCc2nc(-c3n[nH]c(-c4cc(C)c5ncnn5c4)c3C(C)C)sc2C1 [Example 276]	< 4.30
Cc1cc(-c2[nH]nc(C(=O)NC3CCN(CCCC(F)(F)F)CC3)c2C(C)C)cn2ncnc12 [Example 71]	5.24
Cc1cc(-c2[nH]nc(-c3nc4c(s3)CN(C(=O)CN(C)C)CC4)c2C(C)C)cn2ncnc12 [Example 270]	5.46
Cc1cc(-c2[nH]nc(C3CCC(N(C)C(=O)CN(C)C)CC3)c2C(C)C)cn2ncnc12 (single isomer, unassigned) [compound 297]	5.05
COc1cc(-c2[nH]nc(-c3cnc(C4CCN(C5COC5)CC4)cn3)c2C(C)C)cn2ncnc12 [Example 385]	< 4.30

Now from value to molecule:

pIC50	Structure (SMILES)
5.26	CNC(=O)CN1CCc2cc(-c3n[nH]c(-c4cc(C)c5ncnn5c4)c3C(C)C)ccc2C1 [Example 273]
< 4.30	Cc1cc(-c2[nH]nc(C(=O)N[C@H]3CC[C@H](NC(C)C(C)(C)C)CC3)c2C(C)C)cn2ncnc12 (stereo partly drawn) [Example 148]
4.99	Cc1cc(-c2[nH]nc(-c3ccc4cnccc4c3)c2C(C)C)cn2ncnc12 [Example 214]
5.18	Cc1cc(-c2[nH]nc(C(=O)N[C@H]3CCCNC3)c2C(C)C)cn2ncnc12 [Example 54]

target: T3, human TLR8 (Homo sapiens, UniProt Q9NR97); assay: TLR8 inhibition reporter assay (HEK-Blue cells, SEAP reporter, R848 stimulation); format: cell-based; conditions: HEK-Blue cells overexpressing human TLR8, SEAP reporter, R848 15.9 μM
T3 construct: host or cells: HEK-Blue cells
T3 sequence (Q9NR97 27-1041): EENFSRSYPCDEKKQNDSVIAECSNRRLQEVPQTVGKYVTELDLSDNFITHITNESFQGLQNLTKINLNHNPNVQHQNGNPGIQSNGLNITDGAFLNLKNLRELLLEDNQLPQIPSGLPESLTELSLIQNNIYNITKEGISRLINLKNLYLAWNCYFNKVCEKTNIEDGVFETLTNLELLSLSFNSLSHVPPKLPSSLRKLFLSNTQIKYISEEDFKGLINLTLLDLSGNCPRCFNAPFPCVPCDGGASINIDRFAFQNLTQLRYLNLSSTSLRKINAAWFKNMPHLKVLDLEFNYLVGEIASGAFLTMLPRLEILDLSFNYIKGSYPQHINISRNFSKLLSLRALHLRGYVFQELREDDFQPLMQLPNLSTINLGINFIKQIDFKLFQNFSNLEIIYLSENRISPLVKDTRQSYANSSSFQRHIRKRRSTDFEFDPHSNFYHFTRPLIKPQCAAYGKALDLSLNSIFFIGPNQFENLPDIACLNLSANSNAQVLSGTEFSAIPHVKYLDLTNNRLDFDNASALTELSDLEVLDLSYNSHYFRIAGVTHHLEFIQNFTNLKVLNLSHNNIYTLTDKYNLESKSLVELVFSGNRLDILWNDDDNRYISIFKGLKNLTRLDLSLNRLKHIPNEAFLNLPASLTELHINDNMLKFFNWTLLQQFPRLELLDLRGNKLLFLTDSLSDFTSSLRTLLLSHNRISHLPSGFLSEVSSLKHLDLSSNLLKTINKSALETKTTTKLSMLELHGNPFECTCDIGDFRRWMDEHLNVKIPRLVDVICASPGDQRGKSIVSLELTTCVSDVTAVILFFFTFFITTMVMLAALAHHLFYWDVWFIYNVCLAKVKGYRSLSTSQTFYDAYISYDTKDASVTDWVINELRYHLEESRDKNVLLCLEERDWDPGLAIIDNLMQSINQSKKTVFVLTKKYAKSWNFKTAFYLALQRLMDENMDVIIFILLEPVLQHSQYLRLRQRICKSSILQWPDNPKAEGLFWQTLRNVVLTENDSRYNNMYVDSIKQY
Method: as §1, §2

Structure (SMILES)	pIC50
Cc1cc(-c2[nH]nc(-c3nc4ccc(NC(C)C)cc4s3)c2C(C)C)cn2ncnc12 [Example 258]	8.04
Cc1cc(-c2[nH]nc(C(=O)N[C@H]3CC[C@@H](NCC4CCOC4)CC3)c2C(C)C)cn2ncnc12 (stereo partly drawn) [Example 87]	7.93
Cc1cc(-c2[nH]nc(-c3ncc(C4CCN(C(C)C)CC4)cn3)c2C(C)C)cn2ncnc12 [Example 370]	8.86
CC(=O)N1CCc2nc(-c3n[nH]c(-c4cc(C)c5ncnn5c4)c3C(C)C)sc2C1 [Example 276]	< 5.51
Cc1cc(-c2[nH]nc(C(=O)NC3CCN(CCCC(F)(F)F)CC3)c2C(C)C)cn2ncnc12 [Example 71]	7.72
Cc1cc(-c2[nH]nc(-c3nc4c(s3)CN(C(=O)CN(C)C)CC4)c2C(C)C)cn2ncnc12 [Example 270]	7.85
Cc1cc(-c2[nH]nc(C3CCC(N(C)C(=O)CN(C)C)CC3)c2C(C)C)cn2ncnc12 (single isomer, unassigned) [compound 297]	9.57
COc1cc(-c2[nH]nc(-c3cnc(C4CCN(C5COC5)CC4)cn3)c2C(C)C)cn2ncnc12 [Example 385]	7.50

Next, values leading:

pIC50	Structure (SMILES)
7.58	CNC(=O)CN1CCc2cc(-c3n[nH]c(-c4cc(C)c5ncnn5c4)c3C(C)C)ccc2C1 [Example 273]
8.00	Cc1cc(-c2[nH]nc(C(=O)N[C@H]3CC[C@H](NC(C)C(C)(C)C)CC3)c2C(C)C)cn2ncnc12 (stereo partly drawn) [Example 148]
9.41	Cc1cc(-c2[nH]nc(-c3ccc4cnccc4c3)c2C(C)C)cn2ncnc12 [Example 214]
8.43	Cc1cc(-c2[nH]nc(C(=O)N[C@H]3CCCNC3)c2C(C)C)cn2ncnc12 [Example 54]

Reference: patent US20230117470A1, “SUBSTITUTED PYRAZOLE COMPOUNDS AS TOLL RECEPTOR INHIBITORS” (BRISTOL-MYERS SQUIBB COMPANY, priority 2019, published 2023)
